Source: US6737383B1, “Herbicidal oxadiazolidines” (priority 1999, dated 2004)

Assays:
[1] = tested on: bedstraw; assay: Test B pre/postemergence bedstraw; assay type: in vivo, Galium aparine; details: Postemergence; for Plant response rating, Bedstraw: Rate 62 g/ha
Outline: (§1)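 Response is a visual 0-to-10 score relative to untreated plants, where 0 means no effect and 10 means complete control, taken twelve to sixteen days after application. Treatments went onto soil at planting and onto foliage of 1- to 4-leaf plants, using a surfactant-containing non-phytotoxic solvent.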

[2] = tested on: surinam grass; assay: Test B pre/postemergence surinam grass; assay type: in vivo, Brachiaria decumbens
Outline: as §1

[3] = tested on: cocklebur; assay: Test B pre/postemergence cocklebur; assay type: in vivo, Xanthium strumarium
Outline: as §1

[4] = tested on: corn; assay: Test B pre/postemergence corn; assay type: in vivo, Zea mays
Outline: as §1

[5] = tested on: crabgrass; assay: Test B pre/postemergence crabgrass; assay type: in vivo, Digitaria sanguinalis
Outline: as §1

[6] = tested on: giant foxtail; assay: Test B pre/postemergence giant foxtail; assay type: in vivo, Setaria faberii
Outline: as §1

[7] = tested on: morningglory; assay: Test B pre/postemergence morningglory; assay type: in vivo, Ipomoea hederacea
Outline: as §1

[8] = tested on: pigweed; assay: Test B pre/postemergence pigweed; assay type: in vivo, Amaranthus retroflexus
Outline: as §1

[9] = tested on: rape; assay: Test B pre/postemergence rape; assay type: in vivo, Brassica napus
Outline: as §1

[10] = tested on: soybean; assay: Test B pre/postemergence soybean; assay type: in vivo, Glycine max
Outline: as §1

[11] = tested on: sugar beet; assay: Test B pre/postemergence sugar beet; assay type: in vivo, Beta vulgaris
Outline: as §1

[12] = tested on: velvetleaf; assay: Test B pre/postemergence velvetleaf; assay type: in vivo, Abutilon theophrasti
Outline: as §1

[13] = tested on: wheat; assay: Test B pre/postemergence wheat; assay type: in vivo, Triticum aestivum
Outline: as §1

[14] = tested on: purple nutsedge; assay: Test B pre/postemergence purple nutsedge; assay type: in vivo, Cyperus rotundus
Outline: as §1

[15] = tested on: duck salad; assay: Test B flood test duck salad; assay type: in vivo, Heteranthera limosa; details: for Plant response rating, Ducksalad (0 to 10 scale, 0 is no effect, 10 is complete control): Rate 62 g/ha, Pre-emergence; for Plant response rating, Ducksalad (0 to 10 scale, 0 is no effect, 10 is complete control) / Ducksalad plant response rating (0 to 10 scale, 0 is no effect, 10 is complete control): flood test species, visual evaluation after twelve to sixteen days; for Ducksalad plant response rating (0 to 10 scale, 0 is no effect, 10 is complete control): Rate 125 g/ha, under heading Pre-emergence
Outline: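 Plants were grown to the 2-leaf stage before treatment with test chemical, then held in a greenhouse for twelve to sixteen days. Injury was visually rated against untreated controls on a 0–10 scale, where 0 is no effect and 10 is complete control.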

[16] = scale 0 to 10, 0 is no effect, 10 is complete control
[17] = Postemergence, Rate 62 g/ha, scale 0 to 10, 0 is no effect, 10 is complete control
[18] = Postemergence, Rate 125 g/ha, scale of 0 to 10 where 0 is no effect and 10 is complete control
[19] = Postemergence, Rate 250 g/ha, scale of 0 to 10, 0 is no effect, 10 is complete control
[20] = Preemergence, Rate 62 g/ha, scale of 0 to 10 where 0 is no effect and 10 is complete control
[21] = Preemergence, Rate 125 g/ha, scale of 0 to 10 where 0 is no effect and 10 is complete control
[22] = Preemergence, Rate 250 g/ha, scale 0 to 10 (0 no effect, 10 complete control)
[23] = Preemergence, Rate 500 g/ha, scale of 0 to 10 where 0 is no effect and 10 is complete control
[24] = Rate 500 g/ha, Postemergence, scale 0 to 10, 0 is no effect, 10 is complete control
[25] = Rate 250 g/ha, Pre-emergence (flood test species), scale 0 to 10, 0 is no effect, 10 is complete control
[26] = Rate 500 g/ha, Pre-emergence section of Table B, 0 to 10 scale (0 no effect, 10 complete control)

CC(C)N(C(=O)n1oc(=O)n(CC2CCCCO2)c1=O)c1ccc(Cl)cc1 (stereo not shown) [Compound 660]
Plant response rating, Bedstraw [1, 16]: 0 | Bedstraw plant response rating ([1]; Rate 125 g/ha, scale of 0 to 10 where 0 is no effect and 10 is complete control): 0 | Bedstraw plant response rating ([1]; Rate 500 g/ha, scale 0 to 10, 0 is no effect, 10 is complete control): 0 | Plant response rating, B. signalgrass [2, 17]: 0 | Plant response rating, B. signalgrass [2, 18]: 0 | B. signalgrass plant response rating [2, 19]: 0 | B. signalgrass plant response rating [2, 20]: 0 | B. signalgrass plant response rating [2, 21]: 1 | Plant response rating, B. signalgrass [2, 22]: 4 | Plant response rating, B. signalgrass [2, 23]: 4 | B. signalgrass plant response rating [2, 24]: 5 | Plant response rating, Cocklebur [3, 17]: 0 | Cocklebur plant response rating [3, 18]: 0 | Cocklebur plant response rating [3, 19]: 2 | Cocklebur plant response rating [3, 20]: 0 | Cocklebur plant response rating [3, 21]: 0 | Plant response rating, Cocklebur [3, 22]: 0 | Plant response rating, Cocklebur [3, 23]: 0 | Cocklebur plant response rating [3, 24]: 2 | Plant response rating, Corn [4, 17]: 0 | Corn plant response rating [4, 18]: 0 | Corn plant response rating [4, 19]: 0 | Corn plant response rating [4, 20]: 0 | Corn plant response rating [4, 21]: 0 | Plant response rating, Corn [4, 22]: 0 | Plant response rating, Corn [4, 23]: 0 | Corn plant response rating [4, 24]: 2 | Plant response rating, Crabgrass [5, 17]: 0 | Crabgrass plant response rating [5, 18]: 1 | Crabgrass plant response rating [5, 19]: 5 | Crabgrass plant response rating [5, 20]: 4 | Crabgrass plant response rating [5, 21]: 7 | Plant response rating, Crabgrass [5, 22]: 8 | Plant response rating, Crabgrass [5, 23]: 9 | Crabgrass plant response rating [5, 24]: 7 | Plant response rating, Giant foxtail [6, 17]: 3 | Giant foxtail plant response rating [6, 18]: 4 | Giant foxtail plant response rating [6, 19]: 5 | Giant foxtail plant response rating [6, 20]: 8 | Giant foxtail plant response rating [6, 21]: 10 | Plant response rating, Giant foxtail [6, 22]: 10 | Plant response rating, Giant foxtail [6, 23]: 10 | Giant foxtail plant response rating [6, 24]: 8 | Plant response rating, Morningglory [7, 17]: 1 | Morningglory plant response rating [7, 18]: 4 | Morningglory plant response rating [7, 19]: 6 | Morningglory plant response rating [7, 20]: 0 | Morningglory plant response rating [7, 21]: 0 | Plant response rating, Morningglory [7, 22]: 0 | Plant response rating, Morningglory [7, 23]: 0 | Morningglory plant response rating [7, 24]: 7 | Plant response rating, Redroot pigweed [8, 17]: 2 | Redroot pigweed plant response rating [8, 18]: 2 | Redroot pigweed plant response rating [8, 20]: 0 | Redroot pigweed plant response rating [8, 21]: 5 | Plant response rating, Redroot pigweed [8, 22]: 7 | Plant response rating, Redroot pigweed [8, 23]: 10 | Redroot pigweed plant response rating [8, 24]: 6 | Plant response rating, Rape [9, 17]: 0 | Rape plant response rating [9, 18]: 0 | Rape plant response rating [9, 20]: 0 | Rape plant response rating [9, 21]: 0 | Plant response rating, Rape [9, 22]: 3 | Plant response rating, Rape [9, 23]: 4 | Rape plant response rating [9, 24]: 0 | Plant response rating, Soybean [10, 17]: 2 | Soybean plant response rating [10, 18]: 3 | Soybean plant response rating [10, 20]: 0 | Soybean plant response rating [10, 21]: 0 | Plant response rating, Soybean [10, 22]: 0 | Plant response rating, Soybean [10, 23]: 0 | Soybean plant response rating [10, 24]: 6 | Plant response rating, Sugarbeets [11, 17]: 0 | Sugarbeets plant response rating [11, 18]: 0 | Sugarbeets plant response rating [11, 20]: 0 | Sugarbeets plant response rating [11, 21]: 0 | Plant response rating, Sugarbeets [11, 22]: 0 | Plant response rating, Sugarbeets [11, 23]: 0 | Sugarbeets plant response rating [11, 24]: 0 | Plant response rating, Velvetleaf [12, 17]: 0 | Velvetleaf plant response rating [12, 18]: 2 | Velvetleaf plant response rating [12, 20]: 0 | Velvetleaf plant response rating [12, 21]: 0 | Plant response rating, Velvetleaf [12, 22]: 0 | Plant response rating, Velvetleaf [12, 23]: 0 | Velvetleaf plant response rating [12, 24]: 3 | Plant response rating, Wheat [13, 17]: 0 | Wheat plant response rating [13, 18]: 0 | Wheat plant response rating [13, 20]: 0 | Wheat plant response rating [13, 21]: 0 | Plant response rating, Wheat [13, 22]: 0 | Plant response rating, Wheat [13, 23]: 0 | Wheat plant response rating [13, 24]: 0 | Plant response rating, Nutsedge [14, 17]: 0 | Nutsedge plant response rating [14, 18]: 0 | Nutsedge plant response rating [14, 20]: 0 | Nutsedge plant response rating [14, 21]: 0 | Plant response rating, Nutsedge [14, 22]: 0 | Plant response rating, Nutsedge [14, 23]: 0 | Nutsedge plant response rating [14, 24]: 0 | Plant response rating, Ducksalad (0 to 10 scale, 0 is no effect, 10 is complete control) [15]: 0 | Ducksalad plant response rating (0 to 10 scale, 0 is no effect, 10 is complete control) [15]: 0 | Ducksalad plant response rating [15, 25]: 0 | Ducksalad plant response rating [15, 26]: 0

CC[C@H](C)n1c(=O)on(C(=O)N(c2ccc(Cl)cc2)C(C)C)c1=O [Compound 664]
Plant response rating, Bedstraw [1, 16]: 0 | Plant response rating, B. signalgrass [2, 17]: 0 | Plant response rating, B. signalgrass [2, 18]: 0 | B. signalgrass plant response rating [2, 19]: 4 | B. signalgrass plant response rating [2, 20]: 1 | B. signalgrass plant response rating [2, 21]: 5 | Plant response rating, B. signalgrass [2, 22]: 5 | Plant response rating, B. signalgrass [2, 23]: 8 | B. signalgrass plant response rating [2, 24]: 7 | Plant response rating, Cocklebur [3, 17]: 0 | Cocklebur plant response rating [3, 18]: 0 | Cocklebur plant response rating [3, 19]: 2 | Cocklebur plant response rating [3, 20]: 0 | Cocklebur plant response rating [3, 21]: 0 | Plant response rating, Cocklebur [3, 22]: 0 | Plant response rating, Cocklebur [3, 23]: 3 | Cocklebur plant response rating [3, 24]: 6 | Plant response rating, Corn [4, 17]: 0 | Corn plant response rating [4, 18]: 0 | Corn plant response rating [4, 19]: 0 | Corn plant response rating [4, 20]: 0 | Corn plant response rating [4, 21]: 0 | Plant response rating, Corn [4, 22]: 0 | Plant response rating, Corn [4, 23]: 0 | Corn plant response rating [4, 24]: 0 | Plant response rating, Crabgrass [5, 17]: 0 | Crabgrass plant response rating [5, 18]: 1 | Crabgrass plant response rating [5, 19]: 9 | Crabgrass plant response rating [5, 20]: 4 | Crabgrass plant response rating [5, 21]: 8 | Plant response rating, Crabgrass [5, 22]: 9 | Plant response rating, Crabgrass [5, 23]: 10 | Crabgrass plant response rating [5, 24]: 9 | Plant response rating, Giant foxtail [6, 17]: 2 | Giant foxtail plant response rating [6, 18]: 6 | Giant foxtail plant response rating [6, 19]: 9 | Giant foxtail plant response rating [6, 20]: 9 | Giant foxtail plant response rating [6, 21]: 10 | Plant response rating, Giant foxtail [6, 22]: 10 | Plant response rating, Giant foxtail [6, 23]: 10 | Giant foxtail plant response rating [6, 24]: 9 | Plant response rating, Morningglory [7, 17]: 0 | Morningglory plant response rating [7, 18]: 2 | Morningglory plant response rating [7, 19]: 9 | Morningglory plant response rating [7, 20]: 0 | Morningglory plant response rating [7, 21]: 0 | Plant response rating, Morningglory [7, 22]: 0 | Plant response rating, Morningglory [7, 23]: 4 | Morningglory plant response rating [7, 24]: 10 | Plant response rating, Redroot pigweed [8, 17]: 0 | Redroot pigweed plant response rating [8, 18]: 2 | Redroot pigweed plant response rating [8, 20]: 2 | Redroot pigweed plant response rating [8, 21]: 7 | Plant response rating, Redroot pigweed [8, 22]: 7 | Plant response rating, Redroot pigweed [8, 23]: 10 | Redroot pigweed plant response rating [8, 24]: 6 | Plant response rating, Rape [9, 17]: 0 | Rape plant response rating [9, 18]: 0 | Rape plant response rating [9, 20]: 0 | Rape plant response rating [9, 21]: 1 | Plant response rating, Rape [9, 22]: 1 | Plant response rating, Rape [9, 23]: 6 | Rape plant response rating [9, 24]: 3 | Plant response rating, Soybean [10, 17]: 3 | Soybean plant response rating [10, 18]: 4 | Soybean plant response rating [10, 20]: 0 | Soybean plant response rating [10, 21]: 0 | Plant response rating, Soybean [10, 22]: 0 | Plant response rating, Soybean [10, 23]: 0 | Plant response rating, Sugarbeets [11, 17]: 0 | Sugarbeets plant response rating [11, 18]: 0 | Sugarbeets plant response rating [11, 20]: 0 | Sugarbeets plant response rating [11, 21]: 0 | Plant response rating, Sugarbeets [11, 22]: 0 | Plant response rating, Sugarbeets [11, 23]: 5 | Sugarbeets plant response rating [11, 24]: 0 | Plant response rating, Velvetleaf [12, 17]: 0 | Velvetleaf plant response rating [12, 18]: 0 | Velvetleaf plant response rating [12, 20]: 0 | Velvetleaf plant response rating [12, 21]: 0 | Plant response rating, Velvetleaf [12, 22]: 5 | Plant response rating, Velvetleaf [12, 23]: 5 | Velvetleaf plant response rating [12, 24]: 6 | Plant response rating, Wheat [13, 17]: 0 | Wheat plant response rating [13, 18]: 0 | Wheat plant response rating [13, 20]: 0 | Wheat plant response rating [13, 21]: 0 | Plant response rating, Wheat [13, 22]: 0 | Plant response rating, Wheat [13, 23]: 5 | Wheat plant response rating [13, 24]: 2 | Plant response rating, Nutsedge [14, 17]: 0 | Nutsedge plant response rating [14, 18]: 0 | Nutsedge plant response rating [14, 20]: 0 | Nutsedge plant response rating [14, 21]: 0 | Plant response rating, Nutsedge [14, 22]: 0 | Plant response rating, Nutsedge [14, 23]: 0 | Nutsedge plant response rating [14, 24]: 0 | Plant response rating, Ducksalad (0 to 10 scale, 0 is no effect, 10 is complete control) [15]: 0 | Ducksalad plant response rating (0 to 10 scale, 0 is no effect, 10 is complete control) [15]: 0 | Ducksalad plant response rating [15, 25]: 0 | Ducksalad plant response rating [15, 26]: 0
